Test results taken from the NIST ThermoML archive (doi:10.1021/je600562n).
“And” between values parts separate entries of the source, which are not always exact repeats. Equal entries are not always repeated. Numbers after ± are expanded uncertainties.

Conditions: Liquid; for mass density: Vibrating tube method; for viscosity: Vibrating wire viscometry

CC(C)CCCCCCCOC(=O)c1ccccc1C(=O)OCCCCCCCC(C)C
Conditions | mass density | viscosity
298.15 K, 101.33 kPa | 963.81 ± 0.97 kg/m3 [middle of 7 runs] | 87.2 ± 1.9 mPa·s and 87.5 ± 2 mPa·s and 87.3 ± 2 mPa·s
298.15 K, 5000 kPa | 962.8 ± 2.9 kg/m3 | –
298.15 K, 10000 kPa | 965.6 ± 2.9 kg/m3 | 107.3 ± 2.5 mPa·s
298.15 K, 20000 kPa | 970.8 ± 2.9 kg/m3 | –
298.15 K, 30000 kPa | 976 ± 2.9 kg/m3 | –
298.15 K, 50000 kPa | 985.5 ± 3 kg/m3 | –
298.15 K, 70000 kPa | 995.2 ± 3 kg/m3 | –
303.15 K, 101.33 kPa | – | 64.6 ± 1.3 mPa·s
303.15 K, 10000 kPa | – | 78.5 ± 1.9 mPa·s
303.15 K, 20000 kPa | – | 98 ± 2.5 mPa·s
303.15 K, 30000 kPa | – | 120.9 ± 3.2 mPa·s
308.15 K, 101.33 kPa | – | 48.99 ± 1 mPa·s
308.15 K, 10000 kPa | – | 60.3 ± 1.3 mPa·s
308.15 K, 20000 kPa | – | 73.1 ± 1.7 mPa·s
308.15 K, 30000 kPa | – | 89 ± 2.2 mPa·s
308.15 K, 50000 kPa | – | 135.4 ± 3.6 mPa·s
313.15 K, 101.33 kPa | – | 37.74 ± 0.77 mPa·s
313.15 K, 10000 kPa | – | 46.5 ± 1 mPa·s
313.15 K, 20000 kPa | – | 57 ± 1.3 mPa·s
313.15 K, 30000 kPa | – | 68.1 ± 1.6 mPa·s
313.15 K, 50000 kPa | – | 100.1 ± 2.5 mPa·s
323.15 K, 101.33 kPa | 945.64 ± 0.95 kg/m3 [middle of 7 runs] | 23.85 ± 0.49 mPa·s and 23.84 ± 0.5 mPa·s
323.15 K, 5000 kPa | 945.4 ± 2.9 kg/m3 | –
323.15 K, 10000 kPa | 948.5 ± 2.9 kg/m3 | 29.24 ± 0.6 mPa·s
323.15 K, 20000 kPa | 954.6 ± 2.9 kg/m3 | 35.63 ± 0.8 mPa·s
323.15 K, 30000 kPa | 960.4 ± 2.9 kg/m3 | 42.46 ± 0.94 mPa·s
323.15 K, 50000 kPa | 970.7 ± 2.9 kg/m3 | 60.4 ± 1.3 mPa·s
323.15 K, 70000 kPa | 980.1 ± 3 kg/m3 | 80.6 ± 1.8 mPa·s
348.15 K, 101.33 kPa | 927.68 ± 0.94 kg/m3 [middle of 7 runs] | 9.71 ± 0.19 mPa·s and 9.72 ± 0.19 mPa·s and 9.71 ± 0.2 mPa·s
348.15 K, 5000 kPa | 927.9 ± 2.8 kg/m3 | –
348.15 K, 10000 kPa | 931.3 ± 2.8 kg/m3 | 11.55 ± 0.25 mPa·s
348.15 K, 20000 kPa | 938 ± 2.8 kg/m3 | 13.81 ± 0.3 mPa·s
348.15 K, 30000 kPa | 944.1 ± 2.8 kg/m3 | 15.93 ± 0.34 mPa·s
348.15 K, 50000 kPa | 955.3 ± 2.9 kg/m3 | 21.5 ± 0.5 mPa·s
348.15 K, 70000 kPa | 965.7 ± 2.9 kg/m3 | 28.86 ± 0.76 mPa·s
363.15 K, 101.33 kPa | 917.07 ± 0.92 kg/m3 [middle of 6 runs] | 6.39 ± 0.13 mPa·s
373.15 K, 101.33 kPa | 907 ± 2.7 kg/m3 | 5.03 ± 0.1 mPa·s
373.15 K, 5000 kPa | 911.1 ± 2.8 kg/m3 | –
373.15 K, 10000 kPa | 914.8 ± 2.8 kg/m3 | 5.92 ± 0.12 mPa·s
373.15 K, 20000 kPa | 922.1 ± 2.8 kg/m3 | 6.96 ± 0.15 mPa·s
373.15 K, 30000 kPa | 929 ± 2.8 kg/m3 | 7.84 ± 0.17 mPa·s
373.15 K, 50000 kPa | 941 ± 2.8 kg/m3 | 10.33 ± 0.22 mPa·s
373.15 K, 70000 kPa | 952.1 ± 2.9 kg/m3 | 13.45 ± 0.32 mPa·s
398.15 K, 101.33 kPa | – | 3.043 ± 0.063 mPa·s
398.15 K, 5000 kPa | 893.4 ± 2.7 kg/m3 | –
398.15 K, 10000 kPa | 898.8 ± 2.7 kg/m3 | 3.601 ± 0.074 mPa·s
398.15 K, 20000 kPa | 906.6 ± 2.7 kg/m3 | 4.12 ± 0.09 mPa·s
398.15 K, 30000 kPa | 913.5 ± 2.8 kg/m3 | 4.741 ± 0.1 mPa·s
398.15 K, 50000 kPa | 926 ± 2.8 kg/m3 | 5.98 ± 0.13 mPa·s
398.15 K, 70000 kPa | 938.9 ± 2.8 kg/m3 | 7.64 ± 0.17 mPa·s
423.15 K, 101.33 kPa | – | 2.052 ± 0.042 mPa·s
423.15 K, 5000 kPa | 877.5 ± 2.7 kg/m3 | –
423.15 K, 10000 kPa | 881.6 ± 2.7 kg/m3 | 2.401 ± 0.052 mPa·s
423.15 K, 20000 kPa | 890.4 ± 2.7 kg/m3 | 2.707 ± 0.058 mPa·s
423.15 K, 30000 kPa | 898.6 ± 2.7 kg/m3 | 3.001 ± 0.065 mPa·s
423.15 K, 50000 kPa | 912.6 ± 2.8 kg/m3 | 3.857 ± 0.082 mPa·s
423.15 K, 70000 kPa | 926.7 ± 2.8 kg/m3 | 4.826 ± 0.1 mPa·s
